The target in the experiment is T1, Prostaglandin E synthase (Homo sapiens, UniProt O14684).
T1 sequence (O14684 whole entry): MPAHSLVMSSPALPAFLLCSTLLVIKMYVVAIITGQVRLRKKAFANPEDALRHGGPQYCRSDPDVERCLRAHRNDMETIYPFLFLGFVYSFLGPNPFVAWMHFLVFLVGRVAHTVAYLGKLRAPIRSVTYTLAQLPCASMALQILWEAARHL
The experiment is described as follows: mPGES1 enzyme assay: mPGES1 was diluted with assay buffer and added into plate at 49 μL/well supplemented with 1 μL of compound (the final concentration of each compound at seven gradient concentrations was 10000 nM, 1000 nM, 100 nM, 10 nM, 1 nM, 0.1 nM and 0.01 nM). Each well was added with 3.8 μL of 20 μg/mL PGH precooled on ice after shaking for 30 seconds and incubated for 7 minutes on ice. Then, each well was added with 53.8 μL of 6 mg/mL SnCl2 to quench the reaction. The sample was diluted with dilute buffer at 1:400. 10 μl of diluted sample, 5 μL PGE2-d2 and 5 μL anti-PGE2 Cryptate were added to a black 384-well plate, and incubated at 4° C. overnight. HTRF was determined using Flexstation, and the IC50 of the compounds was obtained by data processing software.

As to `CCn1c(-c2ccc(F)cc2)cc2cc(NC(=O)c3cc(CNC(=O)C(C)(C)C)ccc3Br)ccc21`, the 50% inhibitory concentration (IC50) is 6.02 nM.
